# Results: PubChem BioAssay AID1963978 (Molecular Pharmacology Branch, DTP, NCI, 2024)
# Tested on: 616215-338-R-J1-PDC spheroids with HUVEC/MSC, viability
# Assay: Anticancer human tumor 616215-338-R-J1-PDC patient-derived colon adenocarcinoma cell line growth inhibition [PI3K]
# Settings: for viability, T/C: stronger effect = lower value
# In short: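 Complex 3D spheroids (cancer cells + endothelial HUVEC + mesenchymal stem cells); drug pairs of targeted agent x inavolisib/alpelisib/duvelisib/copanlisib; half-log series from ~Cmax, max 10 microM if Cmax unknown; endpoint viability.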
# [1] = curve of first compound, second compound 0.00316 µM
# [2] = curve of first compound, second compound 0.01 µM
# [3] = curve of first compound, second compound 0.0316 µM
# [4] = curve of first compound, second compound 0.1 µM
# [5] = curve of first compound, second compound 0.316 µM
# [6] = curve of first compound, second compound 1 µM
# [7] = second compound 0.00316 µM, first compound 0.0316 µM
# [8] = second compound 0.00316 µM, first compound 0.1 µM
# [9] = second compound 0.00316 µM, first compound 0.316 µM
# [10] = second compound 0.00316 µM, first compound 1 µM
# [11] = second compound 0.00316 µM, first compound 3.16 µM
# [12] = second compound 0.00316 µM, first compound 10 µM
# [13] = second compound 0.01 µM, first compound 0.0316 µM
# [14] = second compound 0.01 µM, first compound 0.1 µM
# [15] = second compound 0.01 µM, first compound 0.316 µM
# [16] = second compound 0.01 µM, first compound 1 µM
# [17] = second compound 0.01 µM, first compound 3.16 µM
# [18] = second compound 0.01 µM, first compound 10 µM
# [19] = second compound 0.0316 µM, first compound 0.0316 µM
# [20] = second compound 0.0316 µM, first compound 0.1 µM
# [21] = second compound 0.0316 µM, first compound 0.316 µM
# [22] = second compound 0.0316 µM, first compound 1 µM
# [23] = second compound 0.0316 µM, first compound 3.16 µM
# [24] = second compound 0.0316 µM, first compound 10 µM
# [25] = second compound 0.1 µM, first compound 0.0316 µM
# [26] = second compound 0.1 µM, first compound 0.1 µM
# [27] = second compound 0.1 µM, first compound 0.316 µM
# [28] = second compound 0.1 µM, first compound 1 µM
# [29] = second compound 0.1 µM, first compound 3.16 µM
# [30] = second compound 0.1 µM, first compound 10 µM
# [31] = second compound 0.316 µM, first compound 0.0316 µM
# [32] = second compound 0.316 µM, first compound 0.1 µM
# [33] = second compound 0.316 µM, first compound 0.316 µM
# [34] = second compound 0.316 µM, first compound 1 µM
# [35] = second compound 0.316 µM, first compound 3.16 µM
# [36] = second compound 0.316 µM, first compound 10 µM
# [37] = second compound 1 µM, first compound 0.0316 µM
# [38] = second compound 1 µM, first compound 0.1 µM
# [39] = second compound 1 µM, first compound 0.316 µM
# [40] = second compound 1 µM, first compound 1 µM
# [41] = second compound 1 µM, first compound 3.16 µM
# [42] = second compound 1 µM, first compound 10 µM
# 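Also: spheroids exposed to agents for seven days before the viability read.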
compound,measurement,setting,value
CC(Cn1ccc(-c2ccc(C#N)c(Cl)c2)n1)NC(=O)c1cc(C(C)O)[nH]n1 (stereo not drawn) + COc1c(OCCCN2CCOCC2)ccc2c3n(c(=NC(=O)c4cnc(N)nc4)nc12)CCN3,IC50,[1],> 10 µM
same,IC50,[2],> 10 µM
same,IC50,[3],> 10 µM
same,IC50,[4],> 10 µM
same,IC50,[5],< 0.0316 µM
same,IC50,[6],< 0.0316 µM
same,"viability, T/C",[7],93.9%
same,"viability, T/C",[8],93.3%
same,"viability, T/C",[9],88.6%
same,"viability, T/C",[10],95.8%
same,"viability, T/C",[11],104%
same,"viability, T/C",[12],91.3%
same,"viability, T/C",[13],99.4%
same,"viability, T/C",[14],86.7%
same,"viability, T/C",[15],100%
same,"viability, T/C",[16],90.8%
same,"viability, T/C",[17],90.3%
same,"viability, T/C",[18],86.2%
same,"viability, T/C",[19],99.1%
same,"viability, T/C",[20],102%
same,"viability, T/C",[21],99.9%
same,"viability, T/C",[22],109%
same,"viability, T/C",[23],93.2%
same,"viability, T/C",[24],84.2%
same,"viability, T/C",[25],90.8%
same,"viability, T/C",[26],91.4%
same,"viability, T/C",[27],90.2%
same,"viability, T/C",[28],96.8%
same,"viability, T/C",[29],89.2%
same,"viability, T/C",[30],83.4%
same,"viability, T/C",[31],35.2%
same,"viability, T/C",[32],34.7%
same,"viability, T/C",[33],45.3%
same,"viability, T/C",[34],33.5%
same,"viability, T/C",[35],36%
same,"viability, T/C",[36],28.5%
same,"viability, T/C",[37],27.7%
same,"viability, T/C",[38],17.2%
same,"viability, T/C",[39],20.3%
same,"viability, T/C",[40],24.8%
same,"viability, T/C",[41],18.8%
same,"viability, T/C",[42],17.8%
CC(Nc1ccc2c(c1)OCCn1cc(N3C(=O)OCC3C(F)F)nc1-2)C(N)=O (stereo not drawn),"viability, T/C",compound 0.00316 µM,94.5% [middle of 8 runs]
same,"viability, T/C",compound 0.01 µM,96.4% [middle of 8 runs]
same,"viability, T/C",compound 0.0316 µM,100% [middle of 8 runs]
same,"viability, T/C",compound 0.1 µM,97.1% [middle of 8 runs]
same,"viability, T/C",compound 0.316 µM,98.8% [middle of 8 runs]
same,"viability, T/C",compound 1 µM,105% [middle of 8 runs]
same,IC50,"compound alone, run of 05/08/2023",> 1 µM
C[C@@H](NC(=O)c1ncnc(N)c1Cl)c1ncc(C(=O)Nc2cc(C(F)(F)F)c(Cl)cn2)s1 + CC(Nc1ccc2c(c1)OCCn1cc(N3C(=O)OCC3C(F)F)nc1-2)C(N)=O,IC50,[1],> 10 µM
same,IC50,[2],> 10 µM
same,IC50,[3],> 10 µM
same,IC50,[4],> 10 µM
same,IC50,[5],> 10 µM
same,IC50,[6],7.36 µM
same,"viability, T/C",[7],103%
same,"viability, T/C",[8],101%
same,"viability, T/C",[9],107%
same,"viability, T/C",[10],106%
same,"viability, T/C",[11],96.5%
same,"viability, T/C",[12],88.7%
same,"viability, T/C",[13],102%
same,"viability, T/C",[14],109%
same,"viability, T/C",[15],98.1%
same,"viability, T/C",[16],104%
same,"viability, T/C",[17],93.3%
same,"viability, T/C",[18],74.8%
same,"viability, T/C",[19],95.5%
same,"viability, T/C",[20],104%
same,"viability, T/C",[21],101%
same,"viability, T/C",[22],103%
same,"viability, T/C",[23],115%
same,"viability, T/C",[24],66%
same,"viability, T/C",[25],100%
same,"viability, T/C",[26],104%
same,"viability, T/C",[27],115%
same,"viability, T/C",[28],102%
same,"viability, T/C",[29],99.5%
same,"viability, T/C",[30],65.7%
same,"viability, T/C",[31],121%
same,"viability, T/C",[32],99%
same,"viability, T/C",[33],94.8%
same,"viability, T/C",[34],98.6%
same,"viability, T/C",[35],85.6%
same,"viability, T/C",[36],60.6%
same,"viability, T/C",[37],101%
same,"viability, T/C",[38],95.7%
same,"viability, T/C",[39],88.1%
same,"viability, T/C",[40],98%
same,"viability, T/C",[41],73.7%
same,"viability, T/C",[42],41.4%
Cn1ncnc1[C@H]1c2n[nH]c(=O)c3cc(F)cc(c23)N[C@@H]1c1ccc(F)cc1 + CC(Nc1ncnc2nc[nH]c12)c1cc2cccc(Cl)c2c(=O)n1-c1ccccc1,IC50,[3],> 0.1 µM
same,IC50,[4],> 0.1 µM
same,IC50,[5],> 0.1 µM
same,IC50,[6],> 0.1 µM
same,IC50,"curve of first compound, second compound 3.16 µM",> 0.1 µM
same,IC50,"curve of first compound, second compound 10 µM",> 0.1 µM
same,"viability, T/C","second compound 0.0316 µM, first compound 0.000316 µM",104%
same,"viability, T/C","second compound 0.0316 µM, first compound 0.001 µM",104%
same,"viability, T/C","second compound 0.0316 µM, first compound 0.00316 µM",102%
same,"viability, T/C","second compound 0.0316 µM, first compound 0.01 µM",96.8%
same,"viability, T/C",[19],105%
same,"viability, T/C",[20],96.8%
same,"viability, T/C","second compound 0.1 µM, first compound 0.000316 µM",87.6%
same,"viability, T/C","second compound 0.1 µM, first compound 0.001 µM",97.8%
same,"viability, T/C","second compound 0.1 µM, first compound 0.00316 µM",97%
same,"viability, T/C","second compound 0.1 µM, first compound 0.01 µM",92.9%
same,"viability, T/C",[25],101%
same,"viability, T/C",[26],93.5%
same,"viability, T/C","second compound 0.316 µM, first compound 0.000316 µM",98.5%
same,"viability, T/C","second compound 0.316 µM, first compound 0.001 µM",95.6%
same,"viability, T/C","second compound 0.316 µM, first compound 0.00316 µM",106%
same,"viability, T/C","second compound 0.316 µM, first compound 0.01 µM",96.9%
same,"viability, T/C",[31],96.9%
same,"viability, T/C",[32],101%
same,"viability, T/C","second compound 1 µM, first compound 0.000316 µM",101%
same,"viability, T/C","second compound 1 µM, first compound 0.001 µM",109%
same,"viability, T/C","second compound 1 µM, first compound 0.00316 µM",99.7%
same,"viability, T/C","second compound 1 µM, first compound 0.01 µM",105%
same,"viability, T/C",[37],100%
same,"viability, T/C",[38],91.5%
same,"viability, T/C","second compound 3.16 µM, first compound 0.000316 µM",91.5%
same,"viability, T/C","second compound 3.16 µM, first compound 0.001 µM",108%
same,"viability, T/C","second compound 3.16 µM, first compound 0.00316 µM",106%
same,"viability, T/C","second compound 3.16 µM, first compound 0.01 µM",90%
same,"viability, T/C","second compound 3.16 µM, first compound 0.0316 µM",94.9%
same,"viability, T/C","second compound 3.16 µM, first compound 0.1 µM",100%
same,"viability, T/C","second compound 10 µM, first compound 0.000316 µM",111%
same,"viability, T/C","second compound 10 µM, first compound 0.001 µM",106%
same,"viability, T/C","second compound 10 µM, first compound 0.00316 µM",102%
same,"viability, T/C","second compound 10 µM, first compound 0.01 µM",96.7%
same,"viability, T/C","second compound 10 µM, first compound 0.0316 µM",100%
same,"viability, T/C","second compound 10 µM, first compound 0.1 µM",95%
